This passage reports inhibition and IC50 results from US5760036A, “Aminediol protease inhibitors” (E. R. Squibb & Sons, Inc., priority 1995, dated 1998).

Where two headings read alike, the source gives them in different places.

The target of one assay is T1, HIV protease (Human immunodeficiency virus type 1 group M subtype B, UniProt P04585).
T1 construct: and purified protease
Briefly: HIV Protease Assay. Type of assay: biochemical. The method, boiled down:
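At a single final concentration of 10 μM (4% DMSO), inhibitors were added to a 30-minute, 37° C reaction of purified enzyme with 450 μM H2N-Val-Ser-Gln-Asn-(β-naphthyl-alanine)-Pro-Val-Ile-OH at pH 5.5 (sodium acetate, BSA). Hydrolysis was quantified by reverse-phase HPLC with 220 nm detection after acid quench.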

Assay [1] relates to RF strain of HIV (CEM-SS cells). As to the kind of experiment: Cell Culture Anti-HIV Activity (cell viability, formazan). The assay is classed as cell-based. Conditions: Human immunodeficiency virus 1, CEM-SS, 144 h, CEM-SS cells, RF strain of HIV, multiplicity of infection 0.04, 6 days at 37° C., 450 nm; read-out: HIV (CEM Cells) IC50. The method, boiled down:
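Half-log compound dilutions added to CEM-SS cells (5000/well) carrying HIV RF (MOI 0.04), 6 days, 37° C. Cell protection measured as formazan from tetrazolium, A450. IC50: drug level restoring infected-cell formazan to 50% of the uninfected untreated control.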

The mark [2] stands for this setting: pH 5.5, 10 μM inhibitor, 4% DMSO, 450 μM substrate, pH 5.5, 30 minutes at 37° C., RP-HPLC, read-out: HIV Protease % Inhibition at 10 μM.
The mark [3] stands for this setting: pH 5.5, read-out: HIV Protease % Inhibition at 10 μM.

As for `CC(C)(C)OC(=O)N[C@@H](Cc1ccccc1)[C@H](O)CNC[C@@H](O)[C@H](CC1CCCCC1)NC(=O)OC(C)(C)C` [Compound 15, [1S-[1R*,2S*(2S*,3R*)]]-[3-[[4-Cyclohexyl-3-[[(1,1-dimethylethoxy)carbonyl]-amino]-2-hydroxybutyl]amino-2-hydroxy-1-(phenylmethyl)propyl]carbamic acid, 1,1-dimethylethyl ester], on HIV protease (setting [2]), the inhibition at 10 µM came to 98%. For the same compound, in assay [1], the IC50 was found to be 380 nM.

As for `CC[C@H](C)[C@H](NC(=O)OCc1ccccc1)[C@H](O)CNC[C@@H](O)[C@H](Cc1ccccc1)NC(=O)OC(C)(C)C` [Compound 16, [2S-[2R*,[S*(2S*,3R*)]]-[1-Hydroxy-3-[[(1,1-dimethylethoxy)carbonyl]-amino]-2-hydroxy-4-phenylbutyl]amino]ethyl-2-methylbutyl]carbamic acid, phenylmethyl ester], the inhibition at 10 µM at HIV protease (setting [2]) was found to be 83%. Besides, in assay [1], the IC50 is at least 2300 nM.

Take `CC(C)(C)OC(=O)N[C@@H](Cc1ccccc1)[C@H](O)CNC[C@@H](O)[C@H](Cc1ccc(OCc2ccccc2)cc1)NC(=O)OCc1ccccc1` [Compound 17, [1S-[1R*,2S*(2S*,3R*)]]-[3-[[3-[[(1,1-Dimethylethoxy)carbonyl]amino]2-hydroxy-4-phenylbutyl]amino]-2-hydroxy-1-[[4-(phenylmethoxy)phenyl]methyl]propyl]carbamic acid, phenylmethyl ester]: the inhibition at 10 µM at HIV protease (setting [2]) turned out to be 84%. Further, the IC50 in assay [1] is above 1500 nM.

Turning to `CC(C)(C)OC(=O)N[C@@H](Cc1ccccc1)[C@H](O)CNC[C@@H](O)[C@H](Cc1ccc(O)cc1)NC(=O)OC(C)(C)C` [Compound 21, [1S-[1R*,2S*(2S*,3R*)]]-3-[[3-[[(1,1-Dimethylethoxy)carbonyl]amino]-2-hydroxy-4-(4-hydroxyphenyl)butyl]amino]-2-hydroxy-1-(phenylmethyl)propyl]carbamic acid, 1,1-dimethylethyl ester], on HIV protease (setting [2]), the inhibition at 10 µM was determined as 99%. In assay [1], the IC50 is 90 nM.

Take `CC(C)(C)OC(=O)N[C@@H](Cc1ccccc1)[C@H](O)CNC[C@@H](O)[C@H](Cc1c[nH]c2ccccc12)NC(=O)OCc1ccccc1` [Compound 22, [1S-[1R*,2S*(2S*,3R*)]]-[3-[[3-[[(1,1-Dimethylethoxy)carbonyl]amino]-2-hydroxy-4-ehenylbutyl]amino]-2-hydroxy-1-[(1H-indol-3-yl)methyl]propyl]carbamic acid, phenylmethyl ester]: the inhibition at 10 µM at HIV protease (setting [2]) stood at 90%. Besides, the IC50 in assay [1] was above 1800 nM.

Regarding `CC(C)(C)OC(=O)N[C@@H](Cc1ccccc1)[C@H](O)CNC[C@@H](O)[C@H](Cc1c[nH]c2ccccc12)NC(=O)OC(C)(C)C` [Compound 23, [1S-[1R*,2S*(2S*,3R*)]]-[3-[[3-[[(1,1-Dimethylethoxy)carbonyl]amino]-2-hydroxy-4-(1H-indol-3-ylmethyl)butyl]amino]-2-hydroxy-1-(phenylmethyl)propyl]carbamic acid, 1,1-dimethylethyl ester], at HIV protease (setting [2]), the inhibition at 10 µM amounted to 98%. For the same compound, in assay [1], the IC50 amounted to 450 nM.

As for `CC(C)(C)OC(=O)N[C@@H](Cc1ccccc1)[C@H](O)CNC[C@@H](O)[C@H](CCc1ccccc1)NC(=O)OCc1ccccc1` [Compound 24, [1S-[1R*,2S*((2S*,3R*)]]-[3-[[3-[[(1,1-Dimethylethoxy)carbonyl]amino-2-hydroxy-4-phenylbutyl]amino]-2-hydroxy-1-(2-phenylethyl)propyl]carbamic acid, phenylmethyl ester], at HIV protease (setting [2]), the inhibition at 10 µM turned out to be 78%. Moreover, the IC50 in assay [1] came out at 4500 nM.

`CC(C)(C)OC(=O)N[C@@H](CCc1ccccc1)[C@H](O)CNC[C@@H](O)[C@H](Cc1ccccc1)NC(=O)OC(C)(C)C` [Compound 25, [1S-[1R*,2S*(2S*,3R* )]]-[3-[[3-[[(1,1-Dimethylethoxy)carbonyl]amino]-2-hydroxy-4-phenylbutyl]amino]-2-hydroxy-1-(2-phenylethyl))propyl]carbarmic acid, 1,1-dimethylethyl ester]: the inhibition at 10 µM at HIV protease (setting [3]) turned out to be 98%. The IC50 in assay [1] was determined as 530 nM.

With `CC(C)(C)OC(=O)N[C@@H](Cc1ccccc1)[C@H](O)CNC[C@@H](O)[C@H](Cc1cccc(OCc2ccccc2)c1)NC(=O)OC(C)(C)C` [Compound 28, [1S-[1R*,2S*(2S*,3R*)]]-[3-[[3-[[(1,1-Dimethylethoxy)-carbonyl]amino]-2-hydroxy-4-phenylbutyl]amino]-2-hydroxy-1-[[3-(phenylmethoxy)phenyl]methyl]propyl]carbamic acid, 1,1-dimethylethyl ester], the inhibition at 10 µM at HIV protease (setting [2]) stood at 100%. For the same compound, the IC50 in assay [1] came to 90 nM.

As for `CC(C)(C)OC(=O)N[C@@H](Cc1ccccc1)[C@H](O)CNC[C@@H](O)[C@H](Cc1cccc(O)c1)NC(=O)OC(C)(C)C` [Compound 29, [1S-[1R*,2S*(2S*,3R*)]]-[3-[[3-[[(1,1-Dimethylethoxy)-carbonyl]amino]-2-hydroxy-4-(3-hydroxyphenyl)butyl]-amino]-2-hydroxy-1-(phenylmethyl)propyl]carbamic acid, 1,1-dimethylethyl ester], the inhibition at 10 µM at HIV protease (setting [3]) came to 100%. Moreover, the IC50 in assay [1] was determined as 100 nM.

As to `CC(C)(C)OC(=O)N[C@@H](Cc1ccccc1)[C@H](O)CNC[C@@H](O)[C@H](Cc1ccncc1)NC(=O)OC(C)(C)C` [Compound 30, [1S-[1R*,2S*(2S*,3R*)]]-[3-[[3-[[(1,1-Dimethylethoxy)-carbonyl]amino]-2-hydroxy-4-phenylbutyl]amino]-2-hydroxy-1-(4-pyridinylmethyl)propyl]carbamic acid, 1,1-dimethylethyl ester], the inhibition at 10 µM at HIV protease (setting [2]) worked out at 97%. Besides, the IC50 in assay [1] came to 500 nM.

Consider `CC(C)(C)OC(=O)N[C@@H](Cc1ccccc1)[C@H](O)CNC[C@@H](O)[C@H](Cc1ccc2ncccc2c1)NC(=O)OC(C)(C)C` [Compound 31, [1S-[1R*,2S*(2S*,3R*)]]-[3-[[3-[[(1,1-Dimethylethoxy)-carbonyl]amino]-2-hydroxy-4-phenylbutyl]amino-2-hydroxy-1-(6-quinolinylmethyl)propyl]carbamic acid, 1,1-dimethylethyl ester], for which, at HIV protease (setting [2]), the inhibition at 10 µM came to 100%. The IC50 in assay [1] stood at 30 nM.

Regarding `CC(C)[C@H](NC(=O)OC(C)(C)C)C(=O)N[C@@H](Cc1ccccc1)[C@H](O)CNC[C@@H](O)[C@H](Cc1ccccc1)NC(=O)[C@@H](NC(=O)OC(C)(C)C)C(C)C` [Compound 34, [S-(1R*,2S*)]-N,N'-[Iminobis[2-hydroxy-1-(phenylmethyl)-3,1-propanediyl]]bis[N^2-[(1,1-dimethylethoxy)carbonyl]-L-valinamide]], the inhibition at 10 µM on HIV protease (setting [2]) came out at 20%. For the same compound, the IC50 in assay [1] was above 9000 nM.

Regarding `O=C(N[C@@H](Cc1ccccc1)[C@H](O)CNC[C@@H](O)[C@H](Cc1ccccc1)NC(=O)c1ccccc1)c1ccccc1` [Compound 36, [S-(1R*,2S*)]-N,N'-[Iminobis[2-hydroxy-1-(phenylmethyl)-3,1-propanediyl]]bisbenzamide], the inhibition at 10 µM on HIV protease (setting [2]) stood at 36%. Moreover, the concentration for half-maximal inhibition (IC50) in assay [1] was above 8000 nM.

For `CC(C)(C)OC(=O)N[C@@H](Cc1ccccc1)C(=O)N[C@@H](Cc1ccccc1)[C@H](O)CNC[C@@H](O)[C@H](Cc1ccccc1)NC(=O)[C@H](Cc1ccccc1)NC(=O)OC(C)(C)C` [Compound 38, [S-(1R*,2S*)]-[Iminobis[2-hydroxy-1-(phenylmethyl)-3,1-propanediyl]]-bisimino-bis[N^2-[(1,1-dimethylethoxy)carbonyl]-L-phenyl-alaninamide]], at HIV protease (setting [2]), the inhibition at 10 µM turned out to be 3%. Also, in assay [1], the IC50 was above 4000 nM.

As to `CC(C)[C@H](NC(=O)OCc1ccccc1)C(=O)N[C@@H](Cc1ccccc1)[C@H](O)CNC[C@@H](O)[C@H](Cc1ccccc1)NC(=O)[C@@H](NC(=O)OCc1ccccc1)C(C)C` [Compound 42, [1S-(1R*,2S*)]-N,N'-[Iminobis[2-hydroxy-1-(phenylmethyl)-3,1-proanediyl]bis[N^2-[(phenylmethoxy)carbonyl]-L-valinamide]], the inhibition at 10 µM on HIV protease (setting [2]) worked out at 100%. The IC50 in assay [1] is 600 nM.

As to `O=C(N[C@@H](Cc1ccccc1)[C@H](O)CNC[C@@H](O)[C@H](Cc1ccccc1)NC(=O)OCc1ccccc1)OCc1ccccc1` [Compound 44, [R-(R*,S*)]-Iminobis[2-hydroxy-1-(phenylmethyl)-3,1-propandiyl]]biscarbamic acid, bis(phenylmethyl) ester], the inhibition at 10 µM at HIV protease (setting [2]) amounted to 58%. For the same compound, in assay [1], the IC50 was above 5000 nM.

On to `CC(C)(C)OC(=O)N[C@@H](Cc1ccccc1)[C@H](O)CNC[C@@H](O)[C@H](Cc1ccccc1)NC(=O)OCc1ccccc1` [Compound 45, [R-(R*,S*)]-[Iminobis[2-hydroxy-1-(phenylmethyl)-3,1-propandiyl]biscarbamic acid, 1,1-dimethylethylphenylmethyl ester], for which the inhibition at 10 µM on HIV protease (setting [2]) was found to be 87%. In assay [1], the IC50 is 500 nM.

For `CC(C)(C)NC(=O)N[C@@H](Cc1ccccc1)[C@H](O)CNC[C@@H](O)[C@H](Cc1ccccc1)NC(=O)NC(C)(C)C` [Compound 47, [R-(R*,S*)]-N,N"-[Iminobis[2-hydroxy-1-(phenylmethyl)-3,1-propanediyl]]-bis[N'-(1,1-dimethylethyl)urea]], at HIV protease (setting [2]), the inhibition at 10 µM is 81%. Moreover, the IC50 in assay [1] came out at 1100 nM.
